Source: patent US20260248799A1, “COMBINATIONS OF RETINALDEHYDE DEHYDROGENASE 1 (RALDH1) INHIBITORS AND IMMUNOSTIMULATORS AND METHODS USING SAME” (The Trustees of the University of Pennsylvania, priority 2023, published 2026)

Columns and labels:
[1] = biological target: T1, Adrenergic β1 (Homo sapiens, UniProt P08588); experiment: Safetyscreen: Adrenergic β1; format: binding; details: read-out: % Inh. Adrenergic β1
T1 construct: Eurofins Cerep Panlabs (contract panel)

[2] = biological target: T2, Serotonin (5-Hydroxytryptamine) 5-HT2B (Homo sapiens, UniProt P41595); experiment: Safetyscreen: 5-HT2B; format: binding; details: read-out: % Inh. Serotonin (5-Hydroxytryptamine) 5-HT2B
T2 construct: Eurofins Cereps Panlabs (contract panel)

[3] = biological target: T3, Androgen (Testosterone) (Homo sapiens, UniProt P10275); experiment: Safetyscreen: Androgen; format: binding; details: read-out: % Inh. Androgen (Testosterone)
T3 construct: Eurofins Cerep Panlabs (contract panel)

[4] = biological target: T4, Adrenergic α2A (Homo sapiens, UniProt P08913); experiment: Safetyscreen: Adrenergic α2A; format: binding; details: read-out: % Inh. Adrenergic α2A
T4 construct: Eurofins Cerep Panlabs (contract panel)

[5] = tested on: Glutamate, NMDA, Agonism; experiment: Safetyscreen: NMDA, Agonism; format: binding, rat; details: 10 μM
[6] = biological target: T5, Potassium Channel [KATP] (Cricetus cricetus, UniProt Q09427); experiment: Safetyscreen: Potassium Channel KATP; format: binding, hamster; details: read-out: % Inh. Potassium Channel [KATP]
T5 construct: Eurofins Cereps Panlabs (contract panel)

[7] = biological target: T6, Opiate δ1 (OP1, DOP) (Homo sapiens, UniProt P41143); experiment: Safetyscreen: Opiate δ1; format: binding; details: read-out: % Inh. Opiate δ1 (OP1, DOP)
T6 construct: Eurofins Cereps Panlabs (contract panel)

[8] = biological target: T7, Muscarinic M1 (Homo sapiens, UniProt P11229); experiment: Safetyscreen: Muscarinic M1; format: binding; details: read-out: % Inh. Muscarinic M1
T7 construct: Eurofins Cereps Panlabs (contract panel)

[9] = biological target: T8, Cyclooxygenase COX-1 (Homo sapiens, UniProt P23219); experiment: Safetyscreen: COX-1; format: biochemical; details: read-out: % Inh. Cyclooxygenase COX-1
T8 construct: Eurofins Cerep Panlabs (contract panel)

[10] = tested on: Phosphodiesterase PDE4; experiment: Safetyscreen: PDE4; format: biochemical, human; details: 10 μM
[11] = biological target: T9, Peptidase, CTSG (Cathepsin G) (Homo sapiens, UniProt P08311); experiment: Safetyscreen: Cathepsin G; format: biochemical; details: read-out: % Inh. Peptidase, CTSG (Cathepsin G)
T9 construct: Eurofins Cerep Panlabs (contract panel)

[12] = biological target: T10, PPARγ (Homo sapiens, UniProt P37231); experiment: Safetyscreen: PPARγ; format: binding
T10 construct: Eurofins Cereps Panlabs (contract panel)

[13] = biological target: T11, Angiotensin AT1 (Homo sapiens, UniProt P30556); experiment: Safetyscreen: Angiotensin AT1; format: binding; details: read-out: % Inh. Angiotensin AT1
T11 construct: purchased Eurofins Cereps Panlabs

[14] = biological target: T12, Monoamine Oxidase MAO-B (Homo sapiens, UniProt P27338); experiment: Safetyscreen: MAO-B; format: biochemical; details: read-out: % Inh. Monoamine Oxidase MAO-B
T12 construct: Eurofins Cerep Panlabs (contract panel)

[15] = biological target: T13, Muscarinic M4 (Homo sapiens, UniProt P08173); experiment: Safetyscreen: Muscarinic M4; format: binding; details: read-out: % Inh. Muscarinic M4
T13 construct: Eurofins Cereps Panlabs (contract panel)

[16] = biological target: T14, Serotonin (5-Hydroxytryptamine) 5-HT1B (Homo sapiens, UniProt P28222); experiment: Safetyscreen: 5-HT1B; format: binding; details: read-out: % Inh. Serotonin (5-Hydroxytryptamine) 5-HT1B
T14 construct: Eurofins Cereps Panlabs (contract panel)

[17] = tested on: SNU398 cells; experiment: RT-qPCR of Raldh1, Raldh2 and Raldh3 transcripts in SNU398 cells; format: cell-based, human; details: SNU398, 24 hours
Experimental: FIG. 21A: Transcript levels (RT-qPCR) of Raldh1, Raldh2 and Raldh3 in SNU398 cells treated with different concentrations of C86 or C91 for 24 hours. FIG. 21B: Homology modeling identifies differences in amino acid residues between human and murine RALDH1 at sites predicted to bind RALDH1-INH. FIG. 21C: SNU398 cells were treated with various concentrations of C86 or C91 for 24 hours. Cell viability was measured by flow cytometry (FCM) with 7-AAD staining (Y-axis indicates percentage of 7-AAD negative cells).
Total RNA from mouse tissue samples and in vitro cultured cells was isolated using GenElute Mammalian Total RNA Miniprep Kit (Sigma) following the manufacturer's protocol. Total RNA from human FFPE samples was isolated by using Quick-RNA FFPE Miniprep Kit (Zymo Research) using the manufacturer's protocol. 1000 ng of RNA was used for reverse transcription using High Capacity RNA to cDNA Kit (Life Technologies). The cDNA product was 10× diluted. 2.5 μL of this cDNA was used for qPCR for each sample. Three or more replicates were used for each reaction. […] Expression fold was calculated as 2^−(CT target gene−CT housekeeping gene). Quantitative PCRs were run on a Viia 7 real time PCR system (ThermoFisher). The following target and housekeeping genes were measured using the commercially available TaqMan probes (ThermoFisher): […]

[18] = biological target: T15, Adrenergic α1A (Rattus norvegicus, UniProt P43140); experiment: Safetyscreen: Adrenergic α1A; format: binding; details: read-out: % Inh. Adrenergic α1A
T15 construct: Eurofins Cerep Panlabs (contract panel)
T15 sequence (P43140 whole entry): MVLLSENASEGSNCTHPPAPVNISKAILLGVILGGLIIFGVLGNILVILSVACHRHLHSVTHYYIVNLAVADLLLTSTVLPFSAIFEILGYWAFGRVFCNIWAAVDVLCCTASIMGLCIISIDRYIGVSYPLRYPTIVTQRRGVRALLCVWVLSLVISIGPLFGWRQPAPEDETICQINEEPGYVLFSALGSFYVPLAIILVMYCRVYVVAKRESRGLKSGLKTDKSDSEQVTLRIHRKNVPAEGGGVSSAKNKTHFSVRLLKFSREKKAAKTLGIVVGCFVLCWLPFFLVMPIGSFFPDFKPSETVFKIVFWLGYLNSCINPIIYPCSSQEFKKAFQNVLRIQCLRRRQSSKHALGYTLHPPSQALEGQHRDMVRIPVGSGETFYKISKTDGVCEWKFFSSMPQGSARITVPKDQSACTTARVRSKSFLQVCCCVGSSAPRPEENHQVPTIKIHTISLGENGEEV

T10 sequence (P37231 whole entry): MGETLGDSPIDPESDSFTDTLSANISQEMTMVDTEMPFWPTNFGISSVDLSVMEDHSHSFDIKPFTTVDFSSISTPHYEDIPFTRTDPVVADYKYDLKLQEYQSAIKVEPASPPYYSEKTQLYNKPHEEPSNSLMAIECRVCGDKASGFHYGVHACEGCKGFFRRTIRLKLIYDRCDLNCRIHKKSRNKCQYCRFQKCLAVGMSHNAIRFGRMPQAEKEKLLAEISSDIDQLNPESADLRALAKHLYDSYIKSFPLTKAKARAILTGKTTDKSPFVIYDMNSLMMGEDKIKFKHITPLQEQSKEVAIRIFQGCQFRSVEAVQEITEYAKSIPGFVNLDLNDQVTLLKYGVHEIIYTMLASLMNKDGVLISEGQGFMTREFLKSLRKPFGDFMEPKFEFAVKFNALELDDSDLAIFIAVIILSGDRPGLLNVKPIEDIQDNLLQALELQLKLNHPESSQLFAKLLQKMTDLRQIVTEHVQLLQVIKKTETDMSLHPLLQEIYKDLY
T9 sequence (P08311 21-244): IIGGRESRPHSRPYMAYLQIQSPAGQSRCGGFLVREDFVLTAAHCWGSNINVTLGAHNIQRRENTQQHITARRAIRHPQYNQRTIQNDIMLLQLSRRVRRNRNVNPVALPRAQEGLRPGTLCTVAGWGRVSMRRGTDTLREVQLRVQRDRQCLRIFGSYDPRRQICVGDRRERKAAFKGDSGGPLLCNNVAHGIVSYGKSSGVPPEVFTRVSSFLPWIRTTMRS
T4 sequence (P08913 whole entry): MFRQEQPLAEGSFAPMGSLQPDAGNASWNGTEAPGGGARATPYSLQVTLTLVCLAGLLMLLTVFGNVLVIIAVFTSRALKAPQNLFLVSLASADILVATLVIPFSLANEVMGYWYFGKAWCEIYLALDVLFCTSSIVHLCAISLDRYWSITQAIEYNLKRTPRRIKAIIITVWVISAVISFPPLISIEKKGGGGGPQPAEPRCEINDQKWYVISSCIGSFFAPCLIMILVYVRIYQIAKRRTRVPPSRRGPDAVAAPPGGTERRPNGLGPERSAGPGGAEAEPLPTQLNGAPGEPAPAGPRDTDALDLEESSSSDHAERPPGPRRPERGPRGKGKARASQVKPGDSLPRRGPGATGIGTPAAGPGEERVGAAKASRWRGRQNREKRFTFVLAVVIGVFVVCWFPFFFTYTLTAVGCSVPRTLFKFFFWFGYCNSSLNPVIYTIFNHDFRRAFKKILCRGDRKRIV
T14 sequence (P28222 whole entry): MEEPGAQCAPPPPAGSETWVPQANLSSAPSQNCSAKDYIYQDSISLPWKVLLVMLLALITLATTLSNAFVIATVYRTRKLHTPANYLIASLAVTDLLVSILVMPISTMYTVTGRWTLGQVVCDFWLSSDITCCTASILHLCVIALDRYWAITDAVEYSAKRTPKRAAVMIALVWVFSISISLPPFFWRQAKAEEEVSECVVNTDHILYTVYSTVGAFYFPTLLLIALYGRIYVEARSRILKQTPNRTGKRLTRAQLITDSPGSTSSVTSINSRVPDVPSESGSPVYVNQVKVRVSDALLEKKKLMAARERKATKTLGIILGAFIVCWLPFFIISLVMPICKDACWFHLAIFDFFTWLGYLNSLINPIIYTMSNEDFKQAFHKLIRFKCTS
T2 sequence (P41595 whole entry): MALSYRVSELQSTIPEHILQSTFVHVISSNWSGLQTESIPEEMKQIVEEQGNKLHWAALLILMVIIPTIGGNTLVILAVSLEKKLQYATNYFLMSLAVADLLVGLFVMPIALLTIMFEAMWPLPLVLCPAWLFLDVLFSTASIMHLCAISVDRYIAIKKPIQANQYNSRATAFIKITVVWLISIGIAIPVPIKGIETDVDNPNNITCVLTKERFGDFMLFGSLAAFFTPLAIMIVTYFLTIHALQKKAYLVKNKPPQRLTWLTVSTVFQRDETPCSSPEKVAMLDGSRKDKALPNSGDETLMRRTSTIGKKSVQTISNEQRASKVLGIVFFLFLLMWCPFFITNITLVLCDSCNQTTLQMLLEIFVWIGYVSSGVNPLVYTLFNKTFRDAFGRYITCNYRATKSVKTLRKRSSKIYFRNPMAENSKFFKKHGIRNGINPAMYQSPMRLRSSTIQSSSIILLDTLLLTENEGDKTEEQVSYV
T1 sequence (P08588 whole entry): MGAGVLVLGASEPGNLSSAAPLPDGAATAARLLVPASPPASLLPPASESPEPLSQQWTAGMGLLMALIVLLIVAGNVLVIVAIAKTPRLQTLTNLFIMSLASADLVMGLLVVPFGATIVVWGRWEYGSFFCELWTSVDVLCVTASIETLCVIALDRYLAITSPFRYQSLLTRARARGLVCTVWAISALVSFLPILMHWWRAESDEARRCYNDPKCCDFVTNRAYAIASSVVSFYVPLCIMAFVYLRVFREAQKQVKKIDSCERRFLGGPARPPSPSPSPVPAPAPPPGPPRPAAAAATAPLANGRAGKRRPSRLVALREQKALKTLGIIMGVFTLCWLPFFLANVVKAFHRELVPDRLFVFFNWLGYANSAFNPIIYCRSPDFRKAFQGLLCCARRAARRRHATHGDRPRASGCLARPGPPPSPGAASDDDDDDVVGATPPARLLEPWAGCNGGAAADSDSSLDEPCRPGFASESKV
T3 sequence (P10275 whole entry): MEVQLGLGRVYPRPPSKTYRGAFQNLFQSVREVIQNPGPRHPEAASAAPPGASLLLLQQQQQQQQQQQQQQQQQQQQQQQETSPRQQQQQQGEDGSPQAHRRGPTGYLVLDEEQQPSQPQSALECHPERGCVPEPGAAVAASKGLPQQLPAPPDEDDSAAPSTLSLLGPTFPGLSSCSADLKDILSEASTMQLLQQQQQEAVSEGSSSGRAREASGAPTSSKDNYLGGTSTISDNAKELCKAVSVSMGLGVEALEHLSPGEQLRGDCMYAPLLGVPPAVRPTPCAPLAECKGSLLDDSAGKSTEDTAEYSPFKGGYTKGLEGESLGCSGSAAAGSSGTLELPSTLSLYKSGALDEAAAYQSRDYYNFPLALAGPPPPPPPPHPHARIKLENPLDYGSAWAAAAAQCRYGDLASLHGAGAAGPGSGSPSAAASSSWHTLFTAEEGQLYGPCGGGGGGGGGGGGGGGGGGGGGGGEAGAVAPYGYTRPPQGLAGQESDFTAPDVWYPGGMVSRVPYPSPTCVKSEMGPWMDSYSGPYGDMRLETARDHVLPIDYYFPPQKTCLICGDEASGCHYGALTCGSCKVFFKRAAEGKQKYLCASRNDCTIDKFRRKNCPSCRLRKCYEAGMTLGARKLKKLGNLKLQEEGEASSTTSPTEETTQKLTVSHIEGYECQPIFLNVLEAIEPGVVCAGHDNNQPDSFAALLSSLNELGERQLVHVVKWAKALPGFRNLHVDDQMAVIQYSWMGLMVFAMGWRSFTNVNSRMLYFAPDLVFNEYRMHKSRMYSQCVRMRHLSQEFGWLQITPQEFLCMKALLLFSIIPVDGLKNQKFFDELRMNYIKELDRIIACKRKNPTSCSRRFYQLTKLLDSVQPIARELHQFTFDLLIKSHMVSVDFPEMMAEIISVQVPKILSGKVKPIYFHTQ
T12 sequence (P27338 whole entry): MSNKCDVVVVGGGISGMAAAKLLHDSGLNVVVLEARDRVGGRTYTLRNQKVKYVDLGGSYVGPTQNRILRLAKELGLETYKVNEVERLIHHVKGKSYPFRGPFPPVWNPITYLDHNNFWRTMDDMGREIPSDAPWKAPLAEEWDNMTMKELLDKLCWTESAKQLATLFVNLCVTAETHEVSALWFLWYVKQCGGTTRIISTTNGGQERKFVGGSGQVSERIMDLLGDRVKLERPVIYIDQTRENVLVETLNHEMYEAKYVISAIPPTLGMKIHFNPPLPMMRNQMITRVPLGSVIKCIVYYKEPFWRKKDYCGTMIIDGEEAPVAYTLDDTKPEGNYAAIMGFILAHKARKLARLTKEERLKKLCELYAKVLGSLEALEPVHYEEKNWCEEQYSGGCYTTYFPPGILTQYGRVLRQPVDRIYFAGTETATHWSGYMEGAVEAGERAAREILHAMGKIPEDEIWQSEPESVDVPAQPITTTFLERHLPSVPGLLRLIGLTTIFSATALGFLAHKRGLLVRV
T13 sequence (P08173 whole entry): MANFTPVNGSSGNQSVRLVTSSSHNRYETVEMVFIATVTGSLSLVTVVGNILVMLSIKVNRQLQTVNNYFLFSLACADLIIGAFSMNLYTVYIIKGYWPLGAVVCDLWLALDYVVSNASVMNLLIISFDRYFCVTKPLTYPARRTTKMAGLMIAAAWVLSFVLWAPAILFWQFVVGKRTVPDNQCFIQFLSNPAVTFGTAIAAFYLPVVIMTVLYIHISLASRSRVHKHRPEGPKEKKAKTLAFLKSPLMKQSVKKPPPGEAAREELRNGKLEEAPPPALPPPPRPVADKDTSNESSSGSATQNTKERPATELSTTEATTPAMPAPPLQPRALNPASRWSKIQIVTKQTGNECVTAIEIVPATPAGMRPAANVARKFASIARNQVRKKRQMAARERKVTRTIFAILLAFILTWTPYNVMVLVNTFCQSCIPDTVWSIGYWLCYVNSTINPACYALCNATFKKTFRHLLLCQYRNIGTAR

For `CS(=O)(=O)N1CCN(C(=O)c2cnc3ccc(F)cc3c2N2CCC(C#N)(c3ccccc3)CC2)CC1` [Compound C-86, 1-(6-fluoro-3-(4-(methylsulfonyl)piperazine-1-carbonyl)quinolin-4-yl)-4-phenylpiperidine-4-carbonitrile], the inhibition at 10 µM [1] was 3%, the inhibition at 10 µM [2] was -5% and the inhibition at 10 µM [3] was 16%. For the same compound, the inhibition at 10 µM [4] was 0%, the “% Inh. Glutamate, NMDA, Agonism” value [5] was 2% and the inhibition at 10 µM [6] was 28%. It also gave an inhibition at 10 µM [7] of 2%, an inhibition at 10 µM [8] of 3% and an inhibition at 10 µM [9] of 6%. For the same compound, the “% Inh. Phosphodiesterase PDE4” value [10] was −7%, the inhibition at 10 µM [11] was 0% and the inhibition at 10 µM [12] was 12%. It also gave an inhibition at 10 µM [13] of 19%, an inhibition at 10 µM [14] of 4% and an inhibition at 10 µM [15] of 13%. For the same compound, the inhibition at 10 µM [16] was -21%, the “transcription of other RALDH isozymes” value [17] was “did not lead to compensatory increases in transcription” and the inhibition at 10 µM [18] was 6%.
